Source: PubChem BioAssay AID252 (DTP/NCI, 2004)
Where “and” joins values, the source holds several entries; their conditions need not be identical. Equal values may be shown once. Inconclusive results and toxic doses are left out.

Tested on: BDF1 mice, intracerebral L1210 leukemia, survival T/C
Assay: NCI In Vivo Anticancer Drug Screen. Data for tumor model L1210 Leukemia (intracerebral) in B6D2F1 (BDF1) mice
Settings: higher = longer survival
Outline: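 Readout is the T/C ratio: survival of compound-treated animals over that of vehicle-treated controls, in mice bearing transplantable tumour.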

[1] = endpoint: mean survival time, dose: 12.0 mg/kg/injection, schedule: Q01DX001 (ip), vehicle: carboxymethylcellulose (CMC)
[2] = endpoint: mean survival time, dose: 18.0 mg/kg/injection, schedule: Q01DX001 (ip), vehicle: carboxymethylcellulose (CMC)
[3] = endpoint: mean survival time, dose: 500.0 mg/kg/injection, schedule: Q01DX001 (ip), vehicle: other
[4] = endpoint: mean survival time, dose: 9.0 mg/kg/injection, schedule: Q01DX001 (ip), vehicle: carboxymethylcellulose (CMC)
[5] = endpoint: mean survival time, dose: 13.0 mg/kg/injection, schedule: Q01DX001 (ip), vehicle: carboxymethylcellulose (CMC)
[6] = endpoint: mean survival time, dose: 18.0 mg/kg/injection, schedule: Q01DX001 (ip), vehicle: saline with Tween-80
[7] = endpoint: mean survival time, dose: 26.0 mg/kg/injection, schedule: Q01DX001 (ip), vehicle: saline with Tween-80
[8] = endpoint: mean survival time, dose: 50.0 mg/kg/injection, schedule: Q01DX Z (ip), vehicle: carboxymethylcellulose (CMC)
[9] = endpoint: mean survival time, dose: 100.0 mg/kg/injection, schedule: Q01DX Z (ip), vehicle: carboxymethylcellulose (CMC)
[10] = endpoint: mean survival time, dose: 200.0 mg/kg/injection, schedule: Q01DX Z (ip), vehicle: carboxymethylcellulose (CMC)
[11] = endpoint: mean survival time, dose: 26.0 mg/kg/injection, schedule: Q01DX001 (ip), vehicle: carboxymethylcellulose (CMC)

O=NN(CCCl)C(=O)NC1CCS(=O)(=O)CC1
T/C (endpoint: mean survival time, dose: 7.5 mg/kg/injection, schedule: Q01DX001 (ip), vehicle: carboxymethylcellulose (CMC)): 212 % of control | T/C (endpoint: mean survival time, dose: 8.0 mg/kg/injection, schedule: Q01DX001 (ip), vehicle: carboxymethylcellulose (CMC)): 171 % of control and 172 % of control | T/C (endpoint: mean survival time, dose: 11.4 mg/kg/injection, schedule: Q01DX001 (ip), vehicle: carboxymethylcellulose (CMC)): 289 % of control | T/C [1]: 197 % of control and 281 % of control | T/C (endpoint: mean survival time, dose: 17.0 mg/kg/injection, schedule: Q01DX001 (ip), vehicle: carboxymethylcellulose (CMC)): 298 % of control | T/C [2]: 151 % of control and 251 % of control | T/C (endpoint: mean survival time, dose: 25.0 mg/kg/injection, schedule: Q01DX001 (ip), vehicle: carboxymethylcellulose (CMC)): 151 % of control | T/C (endpoint: mean survival time, dose: 27.0 mg/kg/injection, schedule: Q01DX001 (ip), vehicle: carboxymethylcellulose (CMC)): 88 % of control | T/C (endpoint: mean survival time, dose: 37.0 mg/kg/injection, schedule: Q01DX001 (ip), vehicle: carboxymethylcellulose (CMC)): 90 % of control

CCOC(=O)C1(NC(=O)N(CCCl)N=O)CCCCC1
T/C (endpoint: mean survival time, dose: 62.0 mg/kg/injection, schedule: Q01DX001 (ip), vehicle: other): 110 % of control | T/C (endpoint: mean survival time, dose: 250.0 mg/kg/injection, schedule: Q01DX001 (ip), vehicle: other): 192 % of control and 200 % of control | T/C [3]: 190 % of control and 196 % of control | T/C (endpoint: mean survival time, dose: 750.0 mg/kg/injection, schedule: Q01DX001 (ip), vehicle: other): 215 % of control | T/C (endpoint: mean survival time, dose: 1000.0 mg/kg/injection, schedule: Q01DX001 (ip), vehicle: other): 156 % of control

O=NN(CCF)C(=O)Nc1c[nH]c(=O)[nH]c1=O
T/C [4]: 103 % of control | T/C [5]: 105 % of control | T/C (endpoint: mean survival time, dose: 20.0 mg/kg/injection, schedule: Q01DX001 (ip), vehicle: carboxymethylcellulose (CMC)): 110 % of control

O=NN(CCCl)C(=O)N[C@@H]1CCCC[C@H]1O
T/C (endpoint: mean survival time, dose: 12.0 mg/kg/injection, schedule: Q01DX001 (ip), vehicle: saline with Tween-80): 350 % of control | T/C [6]: 463 % of control | T/C [7]: 175 % of control

O=C(Nc1ccc(C2=NCCN2)cc1)c1ccc(C(=O)Nc2ccc(C3=NCCN3)cc2)cc1
T/C [8]: 107 % of control | T/C [9]: 110 % of control | T/C [10]: 121 % of control | T/C (endpoint: mean survival time, dose: 250.0 mg/kg/injection, schedule: Q01DX Z (ip), vehicle: carboxymethylcellulose (CMC)): 116 % of control | T/C (endpoint: mean survival time, dose: 375.0 mg/kg/injection, schedule: Q01DX Z (ip), vehicle: carboxymethylcellulose (CMC)): 97 % of control

CN1CCN(CCCN2c3ccccc3Sc3ccc(Cl)cc32)CC1
T/C (endpoint: mean survival time, dose: 16.6 mg/kg/injection, schedule: Q01DX009 (ip), vehicle: saline): 108 % of control | T/C (endpoint: mean survival time, dose: 25.0 mg/kg/injection, schedule: Q01DX009 (ip), vehicle: saline): 103 % of control

O=NN(CCCl)C(=O)Nc1ccc(CC(=O)O)cc1
T/C (endpoint: mean survival time, dose: 6.0 mg/kg/injection, schedule: Q01DX001 (ip), vehicle: carboxymethylcellulose (CMC)): 104 % of control | T/C [4]: 106 % of control | T/C [5]: 110 % of control | T/C [11]: 104 % of control

O=C1C(NC(=O)C2CCCCC2)=C(N2CC2)C(=O)C(NC(=O)C2CCCCC2)=C1N1CC1
T/C (endpoint: mean survival time, dose: 25.0 mg/kg/injection, schedule: Q01DX009 (ip), vehicle: Klucel (hydroxypropylcellulose) (HPC)): 111 % of control | T/C (endpoint: mean survival time, dose: 50.0 mg/kg/injection, schedule: Q01DX009 (ip), vehicle: Klucel (hydroxypropylcellulose) (HPC)): 101 % of control and 102 % of control and 241 % of control | T/C [8]: 104 % of control | T/C [9]: 103 % of control | T/C (endpoint: mean survival time, dose: 200.0 mg/kg/injection, schedule: Q01DX009 (ip), vehicle: Klucel (hydroxypropylcellulose) (HPC)): 105 % of control and 115 % of control and 119 % of control | T/C [10]: 103 % of control | T/C (endpoint: mean survival time, dose: 400.0 mg/kg/injection, schedule: Q01DX009 (ip), vehicle: Klucel (hydroxypropylcellulose) (HPC)): 119 % of control and 97 % of control | T/C (endpoint: mean survival time, dose: 400.0 mg/kg/injection, schedule: Q01DX Z (ip), vehicle: carboxymethylcellulose (CMC)): 116 % of control | T/C (endpoint: mean survival time, dose: 440.0 mg/kg/injection, schedule: Q01DX001 (ip), vehicle: carboxymethylcellulose (CMC)): 96 % of control and 98 % of control | T/C (endpoint: mean survival time, dose: 670.0 mg/kg/injection, schedule: Q01DX001 (ip), vehicle: carboxymethylcellulose (CMC)): 104 % of control and 97 % of control | T/C (endpoint: mean survival time, dose: 800.0 mg/kg/injection, schedule: Q01DX009 (ip), vehicle: Klucel (hydroxypropylcellulose) (HPC)): 104 % of control | T/C (endpoint: mean survival time, dose: 1000.0 mg/kg/injection, schedule: Q01DX001 (ip), vehicle: carboxymethylcellulose (CMC)): 102 % of control and 103 % of control

CN(C)CC(=O)c1ccc(O)c(O)c1
T/C (endpoint: median survival time, dose: 100.0 mg/kg/injection, schedule: Q01DX005 (ip), vehicle: saline): 101 % of control | T/C (endpoint: median survival time, dose: 200.0 mg/kg/injection, schedule: Q01DX005 (ip), vehicle: saline): 101 % of control | T/C (endpoint: median survival time, dose: 400.0 mg/kg/injection, schedule: Q01DX005 (ip), vehicle: saline): 98 % of control | T/C (endpoint: median survival time, dose: 800.0 mg/kg/injection, schedule: Q01DX005 (ip), vehicle: saline): 113 % of control

CC(C)(Cc1ccccc1)NC(=O)N(CCCl)N=O
T/C (endpoint: mean survival time, dose: 375.0 mg/kg/injection, schedule: Q01DX001 (ip), vehicle: other): 122 % of control | T/C [3]: 114 % of control

O=NN(CCCl)C(=O)N[C@H]1CCCC[C@H]1O
T/C [6]: 220 % of control | T/C [7]: 408 % of control | T/C (endpoint: mean survival time, dose: 40.0 mg/kg/injection, schedule: Q01DX001 (ip), vehicle: saline with Tween-80): 352 % of control | T/C (endpoint: mean survival time, dose: 60.0 mg/kg/injection, schedule: Q01DX001 (ip), vehicle: saline with Tween-80): 193 % of control

O=NN(CCCl)C(=O)Nc1cccc([N+](=O)[O-])c1
T/C [1]: 102 % of control | T/C [2]: 118 % of control | T/C [11]: 117 % of control | T/C (endpoint: mean survival time, dose: 40.0 mg/kg/injection, schedule: Q01DX001 (ip), vehicle: carboxymethylcellulose (CMC)): 115 % of control

O=NN(CCCl)C(=O)NC1CCSc2ccccc21 (stereo not drawn)
T/C (endpoint: mean survival time, dose: 26.0 mg/kg/injection, schedule: Q01DX001 (ip), vehicle: other): 164 % of control | T/C (endpoint: mean survival time, dose: 27.0 mg/kg/injection, schedule: Q01DX001 (ip), vehicle: other): 206 % of control | T/C (endpoint: mean survival time, dose: 40.0 mg/kg/injection, schedule: Q01DX001 (ip), vehicle: other): 201 % of control and 261 % of control | T/C (endpoint: mean survival time, dose: 60.0 mg/kg/injection, schedule: Q01DX001 (ip), vehicle: other): 263 % of control and 288 % of control | T/C (endpoint: mean survival time, dose: 90.0 mg/kg/injection, schedule: Q01DX001 (ip), vehicle: other): 161 % of control and 222 % of control | T/C (endpoint: mean survival time, dose: 135.0 mg/kg/injection, schedule: Q01DX001 (ip), vehicle: other): 230 % of control

O=C1C(NCCO)=C(N2CC2)C(=O)C(NCCO)=C1N1CC1
T/C (endpoint: mean survival time, dose: 0.18 mg/kg/injection, schedule: Q01DX009 (ip), vehicle: saline): 108 % of control and 116 % of control | T/C (endpoint: mean survival time, dose: 0.37 mg/kg/injection, schedule: Q01DX009 (ip), vehicle: saline): 114 % of control | T/C (endpoint: mean survival time, dose: 1.5 mg/kg/injection, schedule: Q01DX009 (ip), vehicle: saline): 98 % of control

COCCOC1=C(N2CC2)C(=O)C(OCCOC)=C(N2CC2)C1=O
T/C (endpoint: mean survival time, dose: 0.25 mg/kg/injection, schedule: Q01DX009 (ip), vehicle: saline): 98 % of control and 100 % of control | T/C (endpoint: mean survival time, dose: 1.0 mg/kg/injection, schedule: Q01DX009 (ip), vehicle: saline): 105 % of control and 109 % of control | T/C (endpoint: mean survival time, dose: 2.0 mg/kg/injection, schedule: Q01DX009 (ip), vehicle: saline): 104 % of control and 112 % of control and 114 % of control

C[C@H](CN1CC(=O)NC(=O)C1)N1CC(=O)NC(=O)C1
T/C (endpoint: median survival time, dose: 8.0 mg/kg/injection, schedule: Q01DX009 (ip), vehicle: water): 107 % of control | T/C (endpoint: median survival time, dose: 16.0 mg/kg/injection, schedule: Q01DX009 (ip), vehicle: water): 115 % of control and 116 % of control | T/C (endpoint: median survival time, dose: 32.0 mg/kg/injection, schedule: Q01DX009 (ip), vehicle: water): 124 % of control | T/C (endpoint: median survival time, dose: 64.0 mg/kg/injection, schedule: Q01DX009 (ip), vehicle: water): 123 % of control | T/C (endpoint: median survival time, dose: 256.0 mg/kg/injection, schedule: Q01DX009 (ip), vehicle: water): 109 % of control and 95 % of control

CN=NNc1nc[nH]c1C(N)=O
T/C (endpoint: mean survival time, dose: 12.5 mg/kg/injection, schedule: Q01DX Z (ip), vehicle: carboxymethylcellulose (CMC)): 102 % of control | T/C (endpoint: mean survival time, dose: 25.0 mg/kg/injection, schedule: Q01DX Z (ip), vehicle: carboxymethylcellulose (CMC)): 114 % of control | T/C [8]: 111 % of control | T/C [9]: 87 % of control
